Assay results from patent US5230998A, “Method for the prescreening of drugs targeted to the V3 hypervariable loop of the HIV-1 envelope glycoprotein gp 120” (priority 1991, dated 1993).

Columns and labels:
[1] = target: T1, HIV-1 gp120 V3 hypervariable loop (Human immunodeficiency virus type 1 group M subtype B, UniProt P03375); assay: biochemical; type: binding; on Inhibitory activity: key: Chemicals with inhibitory activity are indicated by +
T1 construct: Polystyrene plates coated with recombinant gp120 and gp160, respectively; purchased American Bio-Technologies, Inc., Cambridge, Mass; host or cells: baculovirus expression system
In short: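 Inhibition RIA/ELISA: gp120/gp160-coated or synthetic peptide-coated wells (gp120/gp41 of HIV-1 BH10 and V3 loops of 21 isolates) incubated overnight at 25 °C with rabbit anti-peptide antisera (1:150, or 1:1,000 for V3) ± compound (ATA 50 μg/ml). Bound IgG detected with 125I-anti-rabbit IgG; percent inhibition versus no-compound control.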

[2] = target: T2, control peptide (518-542) (Human immunodeficiency virus type 1 BH10, UniProt P03375); assay: Attachment of ATA determined by anti-ATA antibodies (double antibody RIA); type: binding, HIV-1; conditions: FIG. 2
T2 construct: cut from Env gp160
Protocol: Antibodies to ATA were detected by double antibody RIA using wells coated with an ATA-ovalbumin conjugate. This conjugate was prepared in the same way as described for the ATA-BSA conjugate. Dilution endpoints of anti-ATA antibodies, determined as described by Ritchie, D. G., Nickerson, J. M., and Fuller, G. M. (1983), "Two Simple Programs for the Analysis of Data from Enzyme-linked Immunosorbent Assays (ELISA) on a Programmable Desk-top Calculator," Methods in Enzymology, 92, 577-588) of the two antisera were: 1:2,700 and 1:150,000, respectively. The second antiserum was used for subsequent RIA tests.
ATA was also added to a control peptide, (518-542), and to wells coated with gelatin only. After incubation for 4 hours at 20° C., excess ATA was removed, the wells were washed with TS and attached ATA was determined by double-antibody RIA using serial dilutions of the anti-ATA antiserum. Similar tests were carried out with serum from the same rabbit before immunization with the ATA-BSA conjugate; the corresponding results (100-450 cpm) were subtracted from cpm corresponding to RIA results obtained with the anti-ATA antiserum. For additional assays aimed at determining the binding of ATA to synthetic peptides from gp120 and gp41 of HIV-1 BH 10 and to V3 hypervariable loop peptides from 20 additional HIV-1 isolates, anti-ATA antiserum was used at a final dilution of 1:800.

[3] = tested on: U937 cells; assay: Toxicity for cells; type: cell-based; conditions: at the concentrations used
Excerpt: (§1) The combined effects of AZT and ATA, and other compounds shown to be effective in Table 1, hereinbelow, against HIV-1 are also contemplated by the present invention, since synergistic drug combinations would offer means for alleviating toxicity due to AZT, observed in clinical settings. Contemplated combinations include, for example, AZT+ATA, AZT+chlorin e6; AZT+deuteroporphyrin IX, 2,4(4,2) hydroxyethyvinyl; and AZT+meso-tetra(4-carboxyphenyl)porphine.

[4] = tested on: MT-2 cells; assay: Toxicity for cells; type: cell-based; conditions: at the concentrations used
Excerpt: as §1

[5] = tested on: H9 cells; assay: Toxicity for cells; type: cell-based; conditions: at the concentrations used
Excerpt: as §1

Structure (SMILES)	extent of inhibition of reaction between gp120 and anti-V3 antibodies versus antibody dilution ([1]; ATA 50 μg/ml, FIG. 3)	inhibition of attachment to gp120 of antibodies against the (303-338) segment ([1]; ATA 50 μg/ml, antisera 1:150, significant inhibition (FIG. 1A)) [%]	binding of ATA to control peptide (anti-ATA antibodies) [2]	toxicity for U937 cells [3]	toxicity for MT-2 cells [4]	toxicity for H9 cells [5]	Inhibitory activity ([1]; Table 1, reaction between HIV-1 gp120 and anti-V3 loop antibodies)	inhibition at 50 µg/mL ([1]; read-out: percentage of inhibition) [%]
O=C(O)C1=CC(=C(c2ccc(O)c(C(=O)O)c2)c2ccc(O)c(C(=O)O)c2)C=CC1=O [substance #122, aurintricarboxylic acid]	correlated with the dilution of antibodies	≥ 22	not with gelatin or a control peptide (518-542)	lack of toxicity	lack of toxicity	lack of toxicity		
C=Cc1c(C)c2cc3nc(c(CC(=O)O)c4[nH]c(cc5nc(cc1[nH]2)C(C)=C5CC)c(C)c4C(=O)O)[C@@H](CCC(=O)O)[C@@H]3C [substance #149, chlorine e6]							+	76.3
